Assays:
[1] = target: T1, human M3 muscarinic receptor (Homo sapiens, UniProt P20309); assay: Radioligand binding assay for muscarinic receptors (hM3); settings: [3H]-NMS displacement, CHO cell membranes
T1 construct: expressed in transfected cells
Procedure: Cell Culture and Membrane Preparation from Cells Expressing Human M1, M2, M3 and M4 Muscarinic Receptors
CHO cell lines stably expressing cloned human hM1, hM2, hM3 and hM4 muscarinic receptor subtypes, respectively, were grown to near confluency in HAM's F-12 media supplemented with 10% FBS and 250 μg/mL Geneticin. The cells were grown in a 5% CO2, 37° C. incubator and lifted with 2 mM EDTA in dPBS. Cells were collected by 5 minute centrifugation at 650×g, and cell pellets were either stored frozen at −80° C. or membranes were prepared immediately for use. […] The protein concentration of the membrane suspension was determined by the method described in Lowry et al., 1951, Journal of Biochemistry, 193, 265. […]
Radioligand binding assays for cloned human muscarinic receptors were performed in 96-well microtiter plates in a total assay volume of 100 μL. […] Filter plates were rinsed three times with wash buffer (10 mM HEPES) to remove unbound radioactivity. […] The plates were then counted in a PerkinElmer Topcount liquid scintillation counter (PerkinElmer Inc., Wellesley, Mass.). Binding data were analyzed by nonlinear regression analysis with the GraphPad Prism Software package (GraphPad Software, Inc., San Diego, Calif.) using the one-site competition model. […]

hM3 receptor = target: T2, hM3 receptor (Homo sapiens, UniProt P20309); assay: Blockade of agonist-mediated calcium release via FLIPR assay (hM3); assay type: cell-based; settings: CHO cells stably expressing hM3
T2 construct: expressed in transfected cells
T2 sequence (P20309 whole entry): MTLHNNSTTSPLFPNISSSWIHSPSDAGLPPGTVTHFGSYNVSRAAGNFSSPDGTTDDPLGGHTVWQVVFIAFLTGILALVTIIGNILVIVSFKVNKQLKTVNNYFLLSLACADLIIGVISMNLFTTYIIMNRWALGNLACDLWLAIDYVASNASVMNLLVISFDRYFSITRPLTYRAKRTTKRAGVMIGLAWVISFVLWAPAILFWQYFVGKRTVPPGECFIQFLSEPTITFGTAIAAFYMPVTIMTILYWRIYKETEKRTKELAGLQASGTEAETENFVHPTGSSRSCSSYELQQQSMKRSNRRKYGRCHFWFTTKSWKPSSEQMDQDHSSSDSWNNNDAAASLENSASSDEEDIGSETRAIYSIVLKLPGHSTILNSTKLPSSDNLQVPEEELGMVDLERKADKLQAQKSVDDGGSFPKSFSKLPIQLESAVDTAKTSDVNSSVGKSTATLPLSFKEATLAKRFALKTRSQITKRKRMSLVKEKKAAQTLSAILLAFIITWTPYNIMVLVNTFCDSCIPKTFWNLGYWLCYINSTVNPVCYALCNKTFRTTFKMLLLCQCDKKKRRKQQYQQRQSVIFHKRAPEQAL
Excerpt: B. Blockade of Agonist-Mediated Calcium Release Via FLIPR Assays
Muscarinic receptor subtypes (M1, M3 and M5 receptors), which couple to Gq proteins, activate the phospholipase C (PLC) pathway upon agonist binding to the receptor. As a result, activated PLC hydrolyzes phosphatyl inositol diphosphate (PIP2) to diacylglycerol (DAG) and phosphatidyl-1,4,5-triphosphate (IP3), which in turn generates calcium release from intracellular stores, i.e., endoplasmic and sarcoplasmic reticulum. […] This fluorescence event is measured in real time by the FLIPR, which detects the change in fluorescence from a monolayer of cells cloned with human M1 and M3, and chimpanzee M5 receptors. Antagonist potency can be determined by the ability of antagonists to inhibit agonist-mediated increases in intracellular calcium. […]
To determine antagonist potency, the dose-dependent stimulation of intracellular Ca^2+ release for oxotremorine was first determined so that antagonist potency can later be measured against oxotremorine stimulation at an EC90 concentration. […]
The parameters used for the FLIPR were: exposure length of 0.4 seconds, laser strength of 0.5 watts, excitation wavelength of 488 nm, and emission wavelength of 550 nm. Baseline was determined by measuring the change in fluorescence for 10 seconds prior to addition of agonist. […]

T1 sequence (P20309 whole entry): as above

SMILES: COc1cc(NC(=O)CCN2CCC(OC(=O)Nc3ccccc3-c3ccccc3)CC2)c(Cl)cc1CNC[C@H](O)c1ccc(O)c2[nH]c(=O)ccc12 [compound of formula I, biphenyl-2-ylcarbamic acid 1-[2-(2-chloro-4-{[(R)-2-hydroxy-2-(8-hydroxy-2-oxo-1,2-dihydroquinolin-5-yl)ethylamino]methyl}-5-methoxyphenylcarbamoyl)ethyl]piperidin-4-yl ester]
- Ki [1]: < 10 nM
- Ki (hM3 receptor): < 10 nM
